Reference: patent US9790253B2, “OSW-1 analogs and conjugates, and uses thereof” (priority 2011, dated 2017)
Where a chain is given by its changes, count along the chain named.

Columns and labels:
OSBP1-myc-his = target: T1, OSBP1-myc-his (Homo sapiens, UniProt P22059); assay: [3H]-25-hydroxycholesterol charcoal-dextran binding assay with OSBP1-myc-his; conditions: for Ki: competition with 20 nM [3H]-25-OHC, HEK-293T S100 lysate, 4° C., 16 h, read-out: [^3H]-25-OHC K1 (nM) OSBP1-myc-his
T1 construct: made in house; host or cells: HEK-293T (transient transfection; S100 lysate, not purified)
T1 sequence (P22059 1-807): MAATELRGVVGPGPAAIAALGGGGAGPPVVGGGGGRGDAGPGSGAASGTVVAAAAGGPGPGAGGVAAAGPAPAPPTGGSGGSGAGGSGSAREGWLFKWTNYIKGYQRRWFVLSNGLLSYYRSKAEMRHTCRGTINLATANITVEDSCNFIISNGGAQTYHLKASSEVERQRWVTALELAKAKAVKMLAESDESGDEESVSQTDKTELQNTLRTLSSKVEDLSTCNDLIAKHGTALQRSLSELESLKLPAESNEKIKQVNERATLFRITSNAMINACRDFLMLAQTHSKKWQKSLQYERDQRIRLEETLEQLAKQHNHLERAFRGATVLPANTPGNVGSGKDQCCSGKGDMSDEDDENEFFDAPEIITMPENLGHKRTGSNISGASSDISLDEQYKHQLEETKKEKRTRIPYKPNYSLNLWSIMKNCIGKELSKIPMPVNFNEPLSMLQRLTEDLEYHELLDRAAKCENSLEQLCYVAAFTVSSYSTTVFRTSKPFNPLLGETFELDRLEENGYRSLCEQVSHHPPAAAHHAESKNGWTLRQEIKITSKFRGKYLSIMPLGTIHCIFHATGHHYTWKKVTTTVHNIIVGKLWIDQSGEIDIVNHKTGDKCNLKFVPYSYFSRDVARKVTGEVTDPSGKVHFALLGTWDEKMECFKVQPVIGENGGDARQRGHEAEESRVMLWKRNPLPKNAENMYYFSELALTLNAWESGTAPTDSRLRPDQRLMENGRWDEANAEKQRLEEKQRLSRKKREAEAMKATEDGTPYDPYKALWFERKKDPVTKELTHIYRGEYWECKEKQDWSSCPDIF
From the text: (§1) [^3H]-25-Hydroxycholesterol charcoal-dextran binding assay.
Methods are described above in the General Methods section.

OSBP1(M446W) = target: T2, OSBP1(M446W) (Homo sapiens, UniProt P22059, M446W); assay: [3H]-25-OHC binding, OSBP1(M446W) mutant; conditions: for binding affinity for OSBP1(M446W) compared to wt OSBP1-myc-his: [3H]-25-OHC competition binding
T2 construct: made in house; host or cells: HEK-293T (transient transfection; S100 lysate, not purified)
T2 sequence (P22059 1-807 M446W): T1 sequence (P22059 1-807) with M446W
Protocol: as §1
The binding affinity of 1, 2 and 4a to the OSBP1(M446W) and OSBP1(V582M) mutants were then determined using [^3H]-25-OHC competition binding. […] Within error limits, the binding affinity of 1, 2 and 4a for these two OSBP1 mutants were unchanged compared to wt OSBP1-myc-his (FIG. 4D).

HCT-116 cells = assay: Growth inhibition with 25-OHC co-administration; assay type: cell-based, human; conditions: for effect of 25-OHC co-administration on the antiproliferative activity: 10 μM 25-OHC for 1 and 2
Protocol: 25-OHC (11) is a high-affinity ligand of OSBP1 and ORP4L that is not cytotoxic at concentrations up to 10 μM. Example 1 established that the ORPphilins compete with 25-OHC for binding to OSBP1 and ORP4L (FIG. 2D,E). Therefore, if OSBP1 and ORP4L mediate the biological activities of these compounds, co-administration of sub-lethal doses of 25-OHC with the ORPphilins should inhibit binding of the ORPphilins to OSBP1 and ORP4L, thereby desensitizing cells to the cytotoxic effects of the ORPphilins.

NPC1^−/− (M12) CHO cells = assay: Antiproliferative activity in NPC1-/- (M12) CHO cells; assay type: cell-based
CHO-7 cells = assay: Antiproliferative activity in CHO-7 cells, lipoprotein-deficient media; assay type: cell-based
From the text: FIG. 4B is a bar graph depicting how removal of lipoproteins from the growth medium sensitizes CHO-7 cells to 25-OHC but not 1, 2, or 4a. Mean±s.d. of two individual experiments. Bref A, brefeldin A.
Insig is a chief regulator of SREBP-dependent cholesterol homeostasis, and 25-OHC exerts much of its ability to inhibit cholesterol biosynthesis through its binding to Insig. The possibility that suppression of the antiproliferative activity of the ORPphilins by 25-OHC could be due to displacement of these compounds from NPC1 or Insig was considered. […] In addition, the antiproliferative activity of 1-4a was evaluated in the CHO-7 cell line, which is a cell line adapted to grow in lipoprotein-deficient media. In lipoprotein-deficient media, CHO-7 cells are dependent on Insig-mediated cholesterol biosynthesis for survival, and are therefore sensitive to 25-OHC binding to Insig. Unlike 25-OHC, the antiproliferative activity of 1, 2, and 4a in CHO-7 cells was not enhanced in lipoprotein-deficient media.

Row | Compound | Ki (OSBP1-myc-his) | binding affinity for OSBP1(M446W) compared to wt OSBP1-myc-his (OSBP1(M446W)) | effect of 25-OHC co-administration on the antiproliferative activity (HCT-116 cells) | antiproliferative activity in NPC1−/− (M12) CHO cells compared to wt CHO cells (NPC1^−/− (M12) CHO cells) | antiproliferative activity in lipoprotein-deficient media (CHO-7 cells) | Kd (OSBP1-myc-his; direct binding) | binding affinity of 25-OHC for OSBP1(M446W) compared to wt (OSBP1(M446W)) | cytotoxicity (HCT-116 cells; concentrations up to 10 μM, cell line not given at the place)
1 | COc1ccc(C(=O)O[C@H]2[C@H](O[C@@H]3[C@@H](OC(C)=O)[C@H](O[C@H]4C[C@H]5[C@@H]6CC=C7C[C@@H](O)CC[C@]7(C)[C@H]6CC[C@]5(C)[C@@]4(O)[C@H](C)C(=O)CCC(C)C)OC[C@@H]3O)OC[C@@H](O)[C@@H]2O)cc1 [OSW-1] | 26 ± 9 nM | unchanged | nearly complete desensitization | no change | not enhanced |  |  | 
2 | C[C@@H]1[C@]2(O[C@H]3C=C4[C@@H]5CC[C@H]6Cc7nc8c(nc7C[C@]6(C)[C@H]5C[C@@H](O)[C@]4(C)[C@]31O)C[C@@H]1CC[C@H]3C4=CC[C@@H]5[C@H](C)[C@@]6(OC[C@]45C(=O)C[C@@H]3[C@@]1(C)C8)OC(C)(C)C[C@H]6O)O[C@](C)(CO)C[C@H]2O [cephalostatin 1, Cephalostatin 1] | 39 ± 10 nM | unchanged | nearly complete desensitization | no change | not enhanced |  |  | 
3 | C[C@H](CCCC(C)(C)O)[C@H]1CC[C@H]2[C@@H]3CC=C4C[C@@H](O)CC[C@]4(C)[C@H]3CC[C@]12C [Compound 25-OHC, 25-hydroxycholesterol] |  |  |  |  |  | 32 ± 14 nM | identical to wt | not cytotoxic
4 | schweinfurthin A | 68 ± 23 nM | unchanged |  | no change | not enhanced |  |  | 
